From patent publication US5089624A, “Dihydropyridine derivatives” (Yuhan Corporation, priority 1988, dated 1992)

The compounds below were run on spiral strips of rabbit aorta (assay: Reduction of calcium-induced contraction of K+-depolarised rabbit aorta spiral strips). Details: Oryctolagus cuniculus; molar concentration required to reduce the contractile response by 50%; 35 mM potassium, 2 mM calcium ion.
Type: cell-based
Protocol: The test is performed by mounting spiral strips of rabbit aorta with one end fixed and the other attached to a force transducer. The mounted tissue is immersed in a physiological salt solution containing potassium ion at a concentration of 35 millimole and no calcium. Calcium chloride is added to the bath to give a final calcium ion concentration of 2 millimole. The change in tension caused by the resulting contraction of the tissue is noted. The bath is drained and replaced with fresh salt solution and, 45 minutes later the test is repeated with the addition of the compound being tested in the presence of salt solution and, […] The concentration of compound required to reduce the response by 50% is recorded. The anti-hypertensive activity of the compounds is also evaluated oral administration by measuring the decrease fall in blood pressure in spontaneously hypertensive rats.

`COCOC(=O)C1=C(C)NC(C)=C(C(=O)OC)C1c1cccc([N+](=O)[O-])c1` (stereo not drawn) [Example 7] and `CCOCOC(=O)C1=C(C)NC(C)=C(C(=O)OC)C1c1cccc([N+](=O)[O-])c1` (stereo not drawn) [Example 9] are within 1.5-fold of each other in IC50: 42 nM for the first, 29 nM for the second.

Compared with `COC(=O)C1=C(C)NC(C)=C(C(=O)OCSc2ccccc2)C1c1cccc([N+](=O)[O-])c1` (stereo not drawn) [Example 13, 2,6-dimethyl-4-(3-nitrophenyl)-1,4-dihydropyridine-3,5-dicarboxylic acid 3-phenylthiomethyl, 5-methylester], `COC(=O)C1=C(C)NC(C)=C(C(=O)OCCN(C)Cc2ccccc2)C1c1cccc([N+](=O)[O-])c1` (stereo not drawn) [control, Nicardipine, reference compound] is 4.1-fold lower in IC50: 142 nM for the first, 35 nM for the second. The second is the more potent here.

Compared with `COCOC(=O)C1=C(C)NC(C)=C(C(=O)OC(C)C)C1c1cccc([N+](=O)[O-])c1` (stereo not drawn) [Example 8], `CSCOC(=O)C1=C(C)NC(C)=C(C(=O)OC(C)C)C1c1cccc([N+](=O)[O-])c1` (stereo not drawn) [Example 3] is 2.2-fold higher in IC50: 26 nM for the first, 56 nM for the second. The first is the more potent here.

Compared with `COC(=O)C1=C(C)NC(C)=C(C(=O)OCSC)C1c1ccccc1[N+](=O)[O-]` (stereo not drawn) [Example 12], `COC(=O)C1=C(C)NC(C)=C(C(=O)OCSC)C1c1cccc([N+](=O)[O-])c1` (stereo not drawn) [Example 1, 2,6-dimethyl-4-(3'-nitrophenyl)-1,4-dihydropyridine-3,5-dicarboxylic acid 3-methylthiomethyl ester 5-methyl ester] is 2.8-fold lower in IC50: 11 nM for the first, 4 nM for the second. The second is the more potent here.

`COC(=O)C1=C(C)NC(C)=C(C(=O)OCSC)C1c1cccc(Cl)c1Cl` (stereo not drawn) [Example 5] and `COCOC(=O)C1=C(C)NC(C)=C(C(=O)OC)C1c1cccc(Cl)c1Cl` (stereo not drawn) [Example 10] are within 1.5-fold of each other in IC50: 29 nM for the first, 20 nM for the second.

`CCOC(=O)C1=C(C)NC(C)=C(C(=O)OCSC)C1c1cccc([N+](=O)[O-])c1` (stereo not drawn) [Example 2] and `CCSCOC(=O)C1=C(C)NC(C)=C(C(=O)OC)C1c1cccc([N+](=O)[O-])c1` (stereo not drawn) [Example 4] are within 1.5-fold of each other in IC50: 20 nM for the first, 17 nM for the second.

Compared with `COC(=O)C1=C(C)NC(C)=C(C(=O)OCSC)C1c1ccccc1C(F)(F)F` (stereo not drawn) [Example 6], `COC(=O)C1=C(C)NC(C)=C(C(=O)OCSC)C1c1cccc2nonc12` (stereo not drawn) [Example 11] is 4.2-fold higher in IC50: 19 nM for the first, 80 nM for the second.

Same assay, conditions: ranking by IC50 in Table 1

With `COC(=O)C1=C(C)NC(C)=C(C(=O)OCSC)C1c1cccc([N+](=O)[O-])c1` (stereo not drawn) [Example 1, 2,6-dimethyl-4-(3'-nitrophenyl)-1,4-dihydropyridine-3,5-dicarboxylic acid 3-methylthiomethyl ester 5-methyl ester] the “activity ranking in words (the smaller the concentration, the more active)” value was “most active compound”.
